From US20250313535A1, “ALPHA 4 BETA 7 INTEGRIN MODULATORS AND USES THEREOF” (DICE MOLECULES SV, INC., priority 2022, published 2025)

What was measured:
α4β7 integrin = α4β7 integrin (Homo sapiens (Human), UniProt P13612+P26010); assay: Integrin Adhesion Assay: Protocol 4 (MAdCAM-coated plate, RPMI-8866 cells with stable LOF mutation of the ITGB1 gene); assay type: cell-based; settings: RPMI-8866 cells with stable LOF mutation of the ITGB1 gene; read-out: Mean IC50 α4β7 KO^a
Outline: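 RPMI-8866 cells with CRISPR/Cas9 knockout of ITGB1 (2×10^6/mL) were added to MAdCAM-coated wells with compound (1% DMSO) in HEPES/NaCl buffer with 1 mM MnCl2, 0.1 mM CaCl2 and 1% BSA, then incubated 1 h at 37 °C. After four washes, adherent cells were quantified by CellTiter-Glo luminescence. Percent inhibition versus DMSO and control compound was fitted to 4-parameter curves.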

α4β1 integrin = α4β1 integrin (Homo sapiens (Human), UniProt P05556+P13612); assay: Integrin Adhesion Assay: Protocol 5 (VCAM-coated plate, RPMI-8866 cells with stable LOF mutation of the ITGB7 gene); assay type: cell-based; settings: RPMI-8866 cells with stable LOF mutation of the ITGB7 gene; read-out: Mean IC50 α4β1 KO^b
Outline: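 RPMI-8866 B cells with CRISPR/Cas9 ITGB7 knockout (clonal, verified by flow cytometry) adhered to VCAM-coated wells for 1 h at 37° C in HEPES/NaCl buffer with 1 mM MnCl2, 0.1 mM CaCl2, 1% BSA, 1% DMSO. Bound cells quantified by CellTiter-Glo luminescence after washing; % inhibition versus DMSO and control, 4-parameter fit.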

α4β1 integrin, sequence (P13612 34-1032): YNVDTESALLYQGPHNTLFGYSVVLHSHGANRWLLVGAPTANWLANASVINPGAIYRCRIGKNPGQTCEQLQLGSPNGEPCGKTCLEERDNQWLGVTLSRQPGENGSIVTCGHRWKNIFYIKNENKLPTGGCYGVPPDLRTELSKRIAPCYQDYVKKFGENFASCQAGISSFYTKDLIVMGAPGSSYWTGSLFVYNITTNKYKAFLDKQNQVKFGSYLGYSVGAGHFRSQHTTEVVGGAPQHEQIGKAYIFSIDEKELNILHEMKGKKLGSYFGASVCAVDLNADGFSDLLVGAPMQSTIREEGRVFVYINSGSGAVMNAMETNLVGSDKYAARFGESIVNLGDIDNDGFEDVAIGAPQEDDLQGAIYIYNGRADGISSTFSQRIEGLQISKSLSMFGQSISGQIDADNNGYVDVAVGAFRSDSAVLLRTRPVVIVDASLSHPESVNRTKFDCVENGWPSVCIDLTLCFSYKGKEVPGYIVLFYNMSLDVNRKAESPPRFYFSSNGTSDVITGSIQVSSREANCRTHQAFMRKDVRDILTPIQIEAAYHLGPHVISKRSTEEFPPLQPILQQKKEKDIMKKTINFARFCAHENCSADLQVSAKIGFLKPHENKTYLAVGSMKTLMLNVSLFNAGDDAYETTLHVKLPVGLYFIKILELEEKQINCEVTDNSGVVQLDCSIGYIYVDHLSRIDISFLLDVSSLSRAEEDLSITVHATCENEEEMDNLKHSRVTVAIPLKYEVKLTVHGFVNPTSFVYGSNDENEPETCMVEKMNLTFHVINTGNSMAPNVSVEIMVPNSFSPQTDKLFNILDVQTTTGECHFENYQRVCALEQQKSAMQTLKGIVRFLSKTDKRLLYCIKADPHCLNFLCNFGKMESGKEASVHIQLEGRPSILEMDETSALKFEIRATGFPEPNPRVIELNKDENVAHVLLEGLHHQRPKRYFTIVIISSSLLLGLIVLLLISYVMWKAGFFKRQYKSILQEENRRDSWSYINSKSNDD
α4β1 integrin, sequence (P05556 21-798): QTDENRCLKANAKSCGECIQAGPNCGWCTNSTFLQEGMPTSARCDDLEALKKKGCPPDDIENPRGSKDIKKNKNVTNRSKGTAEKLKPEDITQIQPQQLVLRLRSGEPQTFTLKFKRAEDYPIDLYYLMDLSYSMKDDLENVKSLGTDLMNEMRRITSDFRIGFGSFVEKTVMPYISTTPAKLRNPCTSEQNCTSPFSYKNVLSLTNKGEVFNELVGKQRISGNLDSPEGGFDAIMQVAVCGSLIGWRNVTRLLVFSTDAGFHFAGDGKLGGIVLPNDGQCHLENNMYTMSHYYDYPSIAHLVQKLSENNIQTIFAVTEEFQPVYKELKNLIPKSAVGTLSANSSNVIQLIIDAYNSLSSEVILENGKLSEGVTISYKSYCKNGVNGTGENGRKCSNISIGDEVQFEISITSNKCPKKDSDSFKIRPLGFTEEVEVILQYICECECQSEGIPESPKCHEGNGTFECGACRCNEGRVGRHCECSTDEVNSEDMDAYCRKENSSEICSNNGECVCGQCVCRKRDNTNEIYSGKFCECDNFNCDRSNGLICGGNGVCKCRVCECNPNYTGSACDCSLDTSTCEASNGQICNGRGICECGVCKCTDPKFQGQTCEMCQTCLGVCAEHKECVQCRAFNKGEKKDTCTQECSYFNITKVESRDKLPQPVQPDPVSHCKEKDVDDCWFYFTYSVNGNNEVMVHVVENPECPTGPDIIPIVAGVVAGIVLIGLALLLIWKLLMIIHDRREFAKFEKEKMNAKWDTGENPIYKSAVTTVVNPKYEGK
α4β7 integrin, sequence (P13612 34-1032): as the sequence (P13612 34-1032) above
α4β7 integrin, sequence (P26010 20-798): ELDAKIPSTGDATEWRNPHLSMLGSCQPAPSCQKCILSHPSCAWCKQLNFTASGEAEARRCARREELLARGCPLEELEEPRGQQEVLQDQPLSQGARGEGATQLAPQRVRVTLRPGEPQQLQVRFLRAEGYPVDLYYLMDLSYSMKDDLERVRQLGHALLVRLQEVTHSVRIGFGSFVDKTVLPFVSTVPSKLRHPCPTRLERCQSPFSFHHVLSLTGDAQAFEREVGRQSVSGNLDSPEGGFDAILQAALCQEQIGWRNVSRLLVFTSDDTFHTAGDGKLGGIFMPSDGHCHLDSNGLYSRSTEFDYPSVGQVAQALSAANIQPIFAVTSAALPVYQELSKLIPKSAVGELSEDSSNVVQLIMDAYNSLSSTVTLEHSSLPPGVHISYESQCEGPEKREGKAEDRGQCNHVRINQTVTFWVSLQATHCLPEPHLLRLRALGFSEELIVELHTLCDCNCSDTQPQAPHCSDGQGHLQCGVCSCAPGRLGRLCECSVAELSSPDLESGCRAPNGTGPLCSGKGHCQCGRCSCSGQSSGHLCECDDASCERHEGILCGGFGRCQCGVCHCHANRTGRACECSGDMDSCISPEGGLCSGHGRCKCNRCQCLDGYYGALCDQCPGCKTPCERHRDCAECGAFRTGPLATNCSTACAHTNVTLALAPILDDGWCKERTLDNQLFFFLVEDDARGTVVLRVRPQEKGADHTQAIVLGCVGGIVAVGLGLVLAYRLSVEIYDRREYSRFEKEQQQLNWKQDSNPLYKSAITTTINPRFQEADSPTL

Row | SMILES | IC50 (α4β7 integrin) [nM] | IC50 (α4β1 integrin) [nM]
1 | O=C(O)[C@H](Cc1cccc2c(-c3nccc4ccc(CCCN5CCCCC5)cc34)cccc12)NC(=O)C1(C(F)(F)F)CCNCC1 [Compound 549] | < 10 | > 1000
2 | O=C(O)[C@H](Cc1cccc2c(-c3ncc(CN4CCCCC4)c4ccccc34)cccc12)NC(=O)C1(C(F)(F)F)CCNCC1 [Compound 550] | 10 to 100 | > 1000
3 | COC(=O)[C@H](Cc1cccc2c(-c3c(OC)ccc(CN(C)C)c3C(F)(F)F)cccc12)NC(=O)OC(C)(C)C [Compound 551] | < 10 | 100 to 1000
4 | COC(=O)[C@H](Cc1cccc2c(-c3c(OC)ccc(CN4C(C)CCC4C)c3OC)cccc12)NC(=O)c1c(C)cccc1F (stereo partly shown) [Compound 552] | < 10 | 100 to 1000
5 | O=C(O)[C@H](Cc1cccc2c(-c3nccc4c(CN5CCCC5)cccc34)cccc12)NC(=O)C1(C(F)(F)F)CCN(CC(F)(F)F)CC1 [Compound 553] | < 10 | 100 to 1000
6 | O=C(O)[C@H](Cc1cccc2c(-c3nccc4c(CN5CCC(F)(F)CC5)cccc34)cccc12)NC(=O)C1(C(F)(F)F)CCN(CC(F)(F)F)CC1 [Compound 554] | 10 to 100 | > 1000
7 | O=C(O)[C@H](Cc1cccc2c(-c3ccc(CN4CCCCC4)c4ccncc34)cccc12)NC(=O)C1(C(F)(F)F)CCN(CC(F)(F)F)CC1 [Compound 555] | < 10 | > 1000
8 | O=C(O)[C@H](Cc1cccc2c(-c3nccc4c(CN5CC(F)C5)cccc34)cccc12)NC(=O)C1(C(F)(F)F)CCN(CC(F)(F)F)CC1 [Compound 556] | < 10 | > 1000
9 | COc1ccc(CN(C)C)c(C)c1-c1cccc2c(C[C@H](NC(=O)c3c(C)cccc3F)C(=O)O)cccc12 [Compound 558] | < 10 | 100 to 1000
10 | O=C(O)[C@H](Cc1cccc2c(-c3nccc4c(CN5CCOCC5)cccc34)cccc12)NC(=O)C1(C(F)(F)F)CCN(CC(F)(F)F)CC1 [Compound 559] | < 10 | > 1000
11 | O=C(O)[C@H](Cc1cccc2c(-c3nccc4c(CN5CCC(F)CC5)cccc34)cccc12)NC(=O)C1(C(F)(F)F)CCN(CC(F)(F)F)CC1 [Compound 560] | < 10 | > 1000
12 | CC1(C)CCN(Cc2cccc3c(-c4cccc5c(C[C@H](NC(=O)C6(C(F)(F)F)CCN(CC(F)(F)F)CC6)C(=O)O)cccc45)nccc23)CC1 [Compound 561] | < 10 | > 1000
13 | COc1ccc(CN2CCCCC2)c(C(F)(F)F)c1-c1cccc2c(C[C@H](NC(=O)c3c(C)cccc3F)C(=O)O)cccc12 [Compound 562] | < 10 | 100 to 1000
14 | COc1ccc(CN(C)C)c(C(F)(F)F)c1-c1cccc2c(C[C@H](NC(=O)C3(C(F)(F)F)CCN(CC(F)(F)F)CC3)C(=O)O)cccc12 [Compound 563] | < 10 | 100 to 1000
15 | COc1ccc(CN2CCCCC2)c(C(F)(F)F)c1-c1cccc2c(C[C@H](NC(=O)C3(C(F)(F)F)CCN(CC(F)(F)F)CC3)C(=O)O)cccc12 [Compound 564] | < 10 | 100 to 1000
16 | COc1ccc(CN2CCCC(C)(C)C2)c(OC)c1-c1cccc2c(C[C@H](NC(=O)c3c(C)cccc3F)C(=O)O)cccc12 [Compound 565] | < 10 | 100 to 1000
17 | COc1cccc(CN2CCCCC2)c1-c1cccc2c(C[C@H](NC(=O)C3(C(F)(F)F)CCN(CC(F)(F)F)CC3)C(=O)O)cccc12 [Compound 566] | < 10 | > 1000
18 | COc1cccc(CCCN(C)C)c1-c1cccc2c(C[C@H](NC(=O)C3(C(F)(F)F)CCN(CC(F)(F)F)CC3)C(=O)O)cccc12 [Compound 567] | < 10 | 100 to 1000
19 | COc1ccc(CN2CCC(C(F)(F)F)CC2)c(OC)c1-c1cccc2c(C[C@H](NC(=O)c3c(C)cccc3F)C(=O)O)cccc12 [Compound 569] | < 10 | 100 to 1000
20 | COc1ccc(CN2CCC(c3ccccc3)CC2)c(OC)c1-c1cccc2c(C[C@H](NC(=O)c3c(C)cccc3F)C(=O)O)cccc12 [Compound 570] | < 10 | 100 to 1000
